In article PMC6367941 (Journal of computer-aided molecular design, 2018):

Assay: UV-metric pKa measurement with methanol cosolvent
Format: physicochemical
Settings: Yasuda-Shedlovsky extrapolation to 0% methanol from psKa in ISA methanol:water mixtures, 25.0 ± 0.5 °C, ~150 mM KCl, mean ± SEM of three replicates

pKa1 | SMILES
5.03 ± 0.01 | FC(F)(F)c1cccc(Nc2ncnc3ccccc23)c1 [SM02]
5.37 ± 0.01 | COc1cccc(Nc2ncnc3ccccc23)c1.Cl [SM09]
